The values that follow come from publication PMC6127852 (Journal of Enzyme Inhibition and Medicinal Chemistry, 2018).

For one series, the system named is calf thymus ctDNA. In words: UV–Vis titration with ctDNA (Scatchard). It counts as binding. Conditions: PBS, pH 7. The procedure: (§1) Polynucleotides were purchased as follows: polyG–polyC, polyA–polyU (Sigma-Aldrich, St. Louis, MO), calf thymus ctDNA (Aldrich). Polynucleotides were dissolved in PBS buffer, I = 0.05 mol dm^−3, pH 7.0. The calf thymus ctDNA was additionally sonicated and filtered through a […] filter. The polynucleotide concentration was spectroscopically determined as the concentration of nucleobases.
(§2) All UV–Vis absorbance measurements were conducted on a Perkin Elmer Lambda 25 spectrophotometer (Perkin Elmer, Waltham, MA). A quartz cell with a 1 cm path length was used for all absorbance studies. Compound stock solutions were 1 mM. The DNA/RNA at increasing ratios was then titrated into the compound buffer solution (1.48 × 10^−5 mol dm^−3) and the corresponding absorption spectra were recorded under the same conditions. All data were graphed and analysed using Origin software version 9.0 (OriginLab Corporation, Northampton, MA). The stability constants (Ks) and [bound compound]/[polynucleotide phosphate] ratios (n) were calculated according to the Scatchard Equation[63] ^, [64]. Values for Ks and n given in Table 1 all have satisfying correlation coefficients (0.99).
(§3) The binding constants logKs and the density of the binding sites n were calculated using Scatchard plot analysis. In addition, the binding constants Ks for compounds 8b and 8e were calculated only for titration data taken at the r ≥ 0.1, because below that ratio changes in absorption maxima were too small for accurate calculation (ΔA ≤ 0.04) (Table 1). The binding constants Ks and ratios n obtained by processing UV–Vis titration data using the Scatchard equation are summarised in Table 1.

For series [1], the system named is polyA-polyU. Kind of series: UV–Vis titration with polyA-polyU (Scatchard). Format: binding. The following applies: PBS, pH 7. The procedure: as §1, §2, §3
For the next series, the system named is polyC-polyG. In words: UV–Vis titration with polyC-polyG (Scatchard). It counts as binding. The following applies: PBS, pH 7. Here is the method:
as §1, §2, §3

Another series has as its system ctDNA. Kind of series: Thermal melting (ΔTm) of ctDNA. Format: binding, calf. Conditions: PBS, pH 7. Here is the method:
(§4) T m experiments were conducted with a Perkin Elmer Lambda 25 spectrophotometer in 1 cm quartz cuvettes. The absorbance of the DNA/RNA-compound complex was monitored at 260 nm as a function of temperature. The absorbance of the ligands was subtracted from every curve, and the absorbance scale was normalised. The ΔT m values were calculated by subtracting T m of the free nucleic acid from T m of the complex. Every reported ΔT m value was the average of at least two measurements. The error of ΔT m is ±0.5 °C. All data were graphed and analysed using Origin software version 9.0.
(§5) Denaturation experiments were carried out at different amounts of the compounds (r = 0.1, 0.3, 0.5, and 0.7 eq; r = [compound]/[polynucleotide]) with ctDNA and polyA-polyU.

Series [2] deals with polyA-polyU. Kind of series: Thermal melting (ΔTm) of polyA-polyU. Format: binding. The procedure:
as §4, §5

A further series deals with S. aureus MRSA. Kind of series: Broth microdilution MIC, MRSA clinical strain. The following applies: Staphylococcus aureus, antibiotic-resistant clinical strain. It counts as cell-based. Here is the method: (§6) The compounds were evaluated for their in vitro anti-bacterial activity against Gram-positive bacteria: S. aureus (ATCC 25923), MRSA, methicillin-sensitive S. aureus (MSSA), E. faecalis, vancomycin-resistant E. faecium (VREF), and Gram-negative bacteria: E. coli (ATCC 25925), P. aeruginosa (ATCC 27853), A. baumannii (ATCC 19606) and ESBL-producing K. pneumoniae (ATCC 27736). Standard broth microdilution method as recommended in guidelines of Clinical and Laboratory Standards Institute[61] ^, [65] ^, [66] was applied and the minimum inhibitory concentration (MIC) of compounds was tested. In short, testing was performed in U-bottomed 96-well sterile plastic microdilution trays (Falcon 3077, Becton Dickinson Labware, Franklin Lakes, NJ) in cation (Ca^2+ and Mg^2+) adjusted Mueller–Hinton broth medium (Becton Dickinson and Co., Cockeysville, MD). All testings were performed in triplicate.
In general terms: In broth dilution the organism is exposed to a series of concentrations in liquid medium.

The next series concerns S. aureus MSSA. Kind of series: Broth microdilution MIC, MSSA clinical strain. Format: cell-based. The following applies: Staphylococcus aureus. Here is the method:
as §6

The next series has as its system E. faecium VRE. In words: Broth microdilution MIC, VRE clinical strain. Format: cell-based. The following applies: Enterococcus faecium. The procedure: as §6
Another series concerns E. coli ESBL. In words: Broth microdilution MIC, ESBL E. coli clinical strain. It counts as cell-based. The following applies: Escherichia coli.
In the next series the test system is P. aeruginosa ESBL. In words: Broth microdilution MIC, ESBL P. aeruginosa clinical strain. Format: cell-based. Conditions: Pseudomonas aeruginosa.
For the next series, the system named is S. aureus ATCC 25923. Kind of series: Broth microdilution MIC, S. aureus ATCC 25923. Format: cell-based. The following applies: Staphylococcus aureus, ATCC25923; Table S2. Here is the method: as §6
(§7) The in vitro anti-bacterial activity of 5-amidinobenzimidazoles 7a–7e, 8a–8e, and 9a–9e was tested against Gram-positive bacteria including S. aureus (ATCC 25923), Enterococcus faecalis (ATCC 29212), and Gram-negative bacteria including E. coli (ATCC 25925), K. pneumoniae (ATCC 700803), P. aeruginosa (ATCC 27853), and Acinetobacter baumannii (ATCC 19606).

In the next series the test system is E. faecalis ATCC 29212. Kind of series: Broth microdilution MIC, E. faecalis ATCC 29212. Format: cell-based. The following applies: Enterococcus faecalis, ATCC29212; Table S2. The procedure: as §6, §7
Another series relates to E. coli ATCC 25925. Kind of series: Broth microdilution MIC, E. coli ATCC 25925. Format: cell-based. The following applies: Escherichia coli, ATCC25925; Table S2. The procedure: as §6, §7
A further series has as its system K. pneumonia ATCC 700803. Kind of series: Broth microdilution MIC, K. pneumoniae ATCC 700803. Format: cell-based. Conditions: Klebsiella pneumoniae, ATCC700803; Table S2. Here is the method:
as §6, §7

The next series concerns P. aeruginosa ATCC 27853. Kind of series: Broth microdilution MIC, P. aeruginosa ATCC 27853. Conditions: Pseudomonas aeruginosa, ATCC27853; Table S2. It counts as cell-based. The procedure: as §6, §7
Another series deals with A. baumannii ATCC 19606. In words: Broth microdilution MIC, A. baumannii ATCC 19606. It counts as cell-based. Conditions: Acinetobacter baumannii, ATCC19606; Table S2. Here is the method:
as §6, §7

Series [3] concerns bloodstream form T. brucei (strain 221). In words: Anti-trypanosomal screening, resazurin. The following applies: Trypanosoma brucei, mean of triplicate ± SEM. Format: cell-based. The procedure:
Bloodstream form T. brucei (strain 221) were cultured in modified Iscove’s medium, as outlined[67] and trypanocidal assays were performed using 96-well microtitre plates. […] Resazurin was added after 48 h, the plates incubated for a further 16 h, and then read in a Spectramax plate reader (Molecular Devices Corporation, San Jose, CA). The data were analysed using GraphPad Prism (GraphPad, La Jolla, CA). Each drug concentration was tested in triplicate.
For orientation: Resazurin is reduced to fluorescent resorufin, in cell work by metabolically active cells.

Series [4] has as its system polyA-polyU (RNA, polymer) A/U. In words: UV-Vis titration, Scatchard. Conditions: PBS, I = 0.05 M (Table 1 says I = 0.015 M), cations not specified, I = 0.015 M (Methods: 0.05 M), pH 7, per base.
For series [5], the system named is polyG-polyC (polyC-polyG) (RNA, polymer) G/C. In words: UV-Vis titration, Scatchard. The following applies: PBS, I = 0.05 M (Table 1 says I = 0.015 M), cations not specified, I = 0.015 M (Methods: 0.05 M), pH 7, n fixed, per base.
For a further series, the system named is K. pneumoniae ESBL. Kind of series: Broth microdilution MIC, ESBL K. pneumoniae clinical strain. It counts as cell-based. The following applies: Klebsiella pneumoniae. The procedure:
as §6

Where [6] appears, read: UV–Vis titration, calculated by Scatchard equation.

As usually defined, the MIC is the lowest concentration that inhibits growth of the organism. The term IC50 denotes the point on the concentration scale where inhibition reaches its midpoint. What is called IC90 is the concentration needed for an effect of 90%. Read a low IC90 as greater potency. In general, melting point refers to the temperature of the solid-liquid transition.

Converted amounts (≈) assume the structure as drawn.

The molecule `Cl.Cl.c1ccc(SCn2cc(COc3ccc(-c4nc5cc(C6=NCCN6)ccc5[nH]4)cc3)nn2)cc1` [Compound 9e, 5–(4,5-Dihydro-1H-imidazol-2-yl)-2–(4-((1-(phenylthiomethyl)-1H-1,2,3-triazol-4-yl)methoxy)phenyl)-1H-benz[d]imidazole dihydrochloride] registered a melting point of 162 to 164 °C. Also, the “Hypochromic effect H/%, ctDNA” value in the series on calf thymus ctDNA (setting [6]) is listed as 41.1%. In addition, the “log Ks, ctDNA” value in the series with calf thymus ctDNA (binding constant, Scatchard) is 6.21. In addition, the “Hypochromic effect H/%, polyA-polyU” value in the series with polyA-polyU [1] (setting [6]) is on record as 31.6%. Besides, the “log Ks, polyA-polyU” value at polyA-polyU [1] (binding constant, Scatchard) was found to be 5.36. In addition, the “Hypochromic effect H/%, polyC-polyG” value with polyC-polyG (setting [6]) was 5.21%. Besides, the “log Ks, polyC-polyG” value at polyC-polyG (binding constant, Scatchard) was found to be 4.29. Moreover, the “ΔTm, ctDNA, r = 0.5” value in the series with ctDNA (r = 0.5) was found to be 3.47 °C. The “ΔTm, ctDNA, r = 0.7” value with ctDNA (r = 0.7) was 3.60 °C. For the same molecule, the “ΔTm, ctDNA, r = 0.3” value in the series with ctDNA (r = [compound]/[polynucleotide] 0.3, error ±0.5 °C) is 2.87 °C. In addition, in the series on polyA-polyU [2] (r = 0.1, PBS, pH 7), the “ΔTm, polyA-polyU, r = 0.1” value was determined as 1.11 °C. The “ΔTm, polyA-polyU, r = 0.3” value in the series on polyA-polyU [2] (r = 0.3, first melting midpoint) amounted to 0.47 °C. Moreover, in the series on polyA-polyU [2] (r = 0.3, footnote c: biphasic melting curve), the “ΔTm, polyA-polyU, r = 0.3, second melting midpoint” value was 12.46^c °C. In the series with polyA-polyU [2] (r = 0.5, first melting midpoint), the “ΔTm, polyA-polyU, r = 0.5” value was determined as 0.47 °C. Also, the “ΔTm, polyA-polyU, r = 0.5, second melting midpoint” value in the series on polyA-polyU [2] (r = 0.5, footnote c: biphasic melting curve) was 13.89^c °C. In the series with S. aureus MRSA, this molecule had a minimal inhibitory concentration (MIC) of 64 µg/mL. The molecule further gave an MIC in the series with S. aureus MSSA of 64 µg/mL. In the series on E. faecium VRE, this molecule displayed a minimal inhibitory concentration (MIC) of 32 µg/mL. The MIC in the series on E. coli ESBL came to 64 µg/mL. In addition, 64 µg/mL was the least that counted as inhibitory against P. aeruginosa ESBL (MIC). 32 µg/mL was the least that counted as inhibitory in the series on S. aureus ATCC 25923 (MIC). Moreover, in the series on E. faecalis ATCC 29212, the MIC amounted to 128 µg/mL. Moreover, the minimal inhibitory concentration (MIC) against E. coli ATCC 25925 was found to be 64 µg/mL. The minimal inhibitory concentration (MIC) with K. pneumonia ATCC 700803 is > 256 µg/mL. Besides, it took 128 µg/mL to inhibit growth against P. aeruginosa ATCC 27853 (MIC). Besides, in the series with A. baumannii ATCC 19606, the minimal inhibitory concentration (MIC) is > 256 µg/mL. In [3], this molecule displayed an IC50 of 9.7 ± 0.2 µM and an IC90 of 14 ± 0.3 µM. Also, the “log Ks” value in [4] is recorded as 5.36. The “log Ks” value in series [5] worked out at 4.29.

In the case of `CC(C)(O/N=C(\C(=O)N[C@@H]1C(=O)N2C(C(=O)[O-])=C(C[n+]3ccccc3)CS[C@H]12)c1csc(N)n1)C(=O)O` [Ceftazidime, ceftazidime, reference compound], the minimal inhibitory concentration (MIC) in the series on E. coli ESBL was 8 µg/mL (≈ 14.6 µM); against K. pneumoniae ESBL, > 128 µg/mL; against P. aeruginosa ESBL, 32 µg/mL (≈ 58.5 µM); against E. coli ATCC 25925, 0.5 µg/mL (≈ 0.915 µM); against P. aeruginosa ATCC 27853 it was 4 µg/mL (≈ 7.32 µM).
